Test results from PubChem BioAssay (NCI).
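All cell lines were grown in 96-well plates and treated with compound for 48 hours. GI50 is the concentration that inhibits growth by half. TGI marks complete inhibition of growth.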

Assays:
Experiment in all cases: NCI anticancer screen, dose series, 48 h
[1] = test system: NCI/ADR-RES ovarian
[2] = test system: HT29 colon
[3] = test system: 786-0 renal
[4] = test system: OVCAR-3 ovarian
[5] = test system: OVCAR-4 ovarian
[6] = test system: HCT-15 colon
[7] = test system: MDA-MB-435
[8] = test system: HOP-92 NSCLC
[9] = test system: HCC-2998 colon
[10] = test system: SK-OV-3 ovarian
[11] = test system: KM12 colon
[12] = test system: RXF 393 renal
[13] = test system: SW-620 colon
[14] = test system: HOP-62 NSCLC
[15] = test system: CAKI-1 renal
[16] = test system: MALME-3M melanoma
[17] = test system: COLO 205 colon
[18] = test system: BT-549 breast
[19] = test system: OVCAR-8 ovarian
[20] = test system: SF-539 CNS
[21] = test system: SK-MEL-2 melanoma
[22] = test system: HCT-116 colon
[23] = test system: T-47D breast
[24] = test system: SK-MEL-28 melanoma
[25] = test system: NCI-H460 lung
[26] = test system: DU-145 prostate
[27] = test system: IGROV1 ovarian
[28] = test system: A549 NSCLC
[29] = test system: MCF7 breast
[30] = test system: MOLT-4 leukemia
[31] = test system: M14 melanoma
[32] = test system: MDA-MB-231 breast
[33] = test system: NCI-H23 lung
[34] = test system: LOX IMVI melanoma
[35] = test system: SK-MEL-5 melanoma
[36] = test system: SF-295 CNS
[37] = test system: NCI-H522 lung
[38] = test system: UACC-257 melanoma
[39] = test system: RPMI-8226 leukemia
[40] = test system: U251 CNS
[41] = test system: SNB-75 CNS
[42] = test system: PC-3 prostate
[43] = test system: ACHN renal
[44] = test system: A498 renal
[45] = test system: SNB-19 CNS
[46] = test system: K-562 leukemia
[47] = test system: SN12C renal
[48] = test system: MDA-MB-468 breast
[49] = test system: UACC-62 melanoma
[50] = test system: UO-31 renal
[51] = test system: NCI-H226 lung
[52] = test system: CCRF-CEM leukemia
[53] = test system: TK-10 renal
[54] = test system: SF-268 CNS
[55] = test system: EKVX NSCLC
[56] = test system: HS 578T breast
[57] = test system: OVCAR-5 ovarian
[58] = test system: HL-60(TB) leukemia

**Q.** What does the source list for `COc1ccc(-c2cc(C(=O)N=Nc3c(O)[nH]c4ccc(Cl)cc34)c3ccccc3n2)cc1`?
**A.** GI50 [1]: 12 µM; TGI [1]: 47.3 µM; GI50 [2]: 4.63 µM; TGI [2]: 31.2 µM; GI50 [3]: 19.8 µM; TGI [3]: 43.7 µM; GI50 [4]: 11.8 µM; TGI [4]: 26.4 µM; GI50 [5]: 13 µM; TGI [5]: 43.3 µM; GI50 [6]: 2.81 µM; TGI [6]: 10.2 µM; GI50 [7]: 14.8 µM; TGI [7]: 30.7 µM; GI50 [8]: 11.6 µM; TGI [8]: 32.9 µM; GI50 [9]: 15 µM; TGI [9]: 31.4 µM; GI50 [10]: 15.8 µM; TGI [10]: 33.1 µM; GI50 [11]: 21.6 µM; TGI [11]: 57.3 µM; GI50 [12]: 12.1 µM; TGI [12]: 25.7 µM; GI50 [13]: 3.09 µM; TGI [13]: 19.4 µM; GI50 [14]: 3.96 µM; TGI [14]: 25.7 µM; GI50 [15]: 11.7 µM; TGI [15]: 26.4 µM; GI50 [16]: 14.4 µM; TGI [16]: 28.5 µM; GI50 [17]: 15 µM; TGI [17]: 35.3 µM; GI50 [18]: 22 µM; TGI [18]: 43 µM; GI50 [19]: 10.2 µM; TGI [19]: 35.9 µM; GI50 [20]: 15.5 µM; TGI [20]: 29.8 µM; GI50 [21]: 19.3 µM; TGI [21]: 35.8 µM; GI50 [22]: 5.3 µM; TGI [22]: 63.7 µM; GI50 [23]: 11.8 µM; TGI [23]: 42.3 µM; GI50 [24]: 14.7 µM; TGI [24]: 30 µM; GI50 [25]: 11.5 µM; TGI [25]: 39.7 µM; GI50 [26]: 15.3 µM; TGI [26]: 29.7 µM; GI50 [27]: 13.1 µM; TGI [27]: 30.1 µM; GI50 [28]: 5.56 µM; TGI [28]: 31.9 µM; GI50 [29]: 5.32 µM; TGI [29]: 28.2 µM; GI50 [30]: 3.88 µM; TGI [30]: > 100 µM; GI50 [31]: 11 µM; TGI [31]: 41.9 µM; GI50 [32]: 5.13 µM; TGI [32]: 18.1 µM; GI50 [33]: 6.43 µM; TGI [33]: 30.8 µM; GI50 [34]: 3.23 µM; TGI [34]: 13.3 µM; GI50 [35]: 15.5 µM; TGI [35]: 30.8 µM; GI50 [36]: 13.7 µM; TGI [36]: 29.4 µM; GI50 [37]: 16.5 µM; TGI [37]: 39.4 µM; GI50 [38]: 16.6 µM; TGI [38]: 32.6 µM; GI50 [39]: 14.7 µM; TGI [39]: > 100 µM; GI50 [40]: 3.57 µM; TGI [40]: 16.2 µM; GI50 [41]: 12.9 µM; TGI [41]: 27.6 µM; GI50 [42]: 12 µM; TGI [42]: > 100 µM; GI50 [43]: 10.1 µM; TGI [43]: 23.2 µM; GI50 [44]: 21 µM; TGI [44]: 36.1 µM; GI50 [45]: 17.4 µM; TGI [45]: 32 µM; GI50 [46]: 3.14 µM; TGI [46]: > 100 µM; GI50 [47]: 13.9 µM; TGI [47]: 32 µM; GI50 [48]: 6.78 µM; TGI [48]: 25.9 µM; GI50 [49]: 14.8 µM; TGI [49]: 30.4 µM; GI50 [50]: 11.5 µM; TGI [50]: 24.1 µM; GI50 [51]: 14.3 µM; TGI [51]: 55.1 µM; GI50 [52]: 3.32 µM; TGI [52]: > 100 µM; GI50 [53]: 23.9 µM; TGI [53]: 42.3 µM; GI50 [54]: 16.2 µM; TGI [54]: 37.6 µM; GI50 [55]: 11.4 µM; TGI [55]: 27.1 µM; GI50 [56]: 16.6 µM; TGI [56]: 69.2 µM; GI50 [57]: 12.2 µM; TGI [57]: 26.4 µM; GI50 [58]: 9.57 µM; TGI [58]: > 100 µM
